Reference: patent publication US20230330254A1 (Regeneron Pharmaceuticals, Inc., priority 2022, published 2023)
One block for each compound: values may come before it. Where a SMILES comes first, the peptide text is derived from it. [ ]: non-standard residue; d: D form. The star is where a group is joined. Bip(2'-Et,4'-O(CH2)4NH2) = CCc1cc(OCCCCN)ccc1-c1ccc(C[C@H](N)C(=O)O)cc1; Nva(5-(3,5-Me2Ph)) = Cc1cc(C)cc(CCC[C@H](N)C(=O)O)c1; Ala(1H-tetrazol-5-yl) = N[C@@H](Cc1nnn[nH]1)C(=O)O; αMePhe(2-F) = C[C@](N)(Cc1ccccc1F)C(=O)O; Desaminohistidyl = O=C(CCc1c[nH]cn1)*; X6 = CC(C)(C(=O)NO)C(=O)*

Experiments:
human GLP1R [1] = biological target: T1, human GLP1R (Homo sapiens, UniProt P43220); assay: Luciferase reporter assay, HEK293/CRE-Luc/hGLP1R cells (Example 11); type: cell-based; set-up: engineered to express full-length human GLP1R, cynomolgus GLP1R; expressed in transfected cells; host or cells: HEK293/CRE-Luc; conditions: Table 11; Experiment A
From the text: (§1) To test the activity of GLP1R agonist payloads, GLP1R agonist linker-payloads (LPs), and anti-GLP1R antibody tethered drug conjugates (ATDCs) of the disclosure, a cell-based cAMP responsive luciferase reporter assay was developed. To generate the assay cell line, the firefly luciferase gene was placed under the control of a cAMP response element (CRE) located upstream of a minimal promoter and transfected into HEK293 cells and referred to herein as HEK293/CRE-Luc cells.
(§2) Three-fold serial dilutions of free payloads or LPs were prepared in 100% DMSO, transferred to fresh assay media, and added to the cells at a final constant DMSO concentration of 0.2%. The last well in the plate served as a blank control containing only the assay media and 0.2% DMSO (untreated well) and was plotted as a continuation of the 3-fold serial dilution. Four to six hours later, luciferase activity was determined after the addition of One-Glo™ reagent (Promega, Cat #E6130) to each well. Relative light units (RLUs) were measured on an Envision luminometer (PerkinElmer) and EC50 values were determined using a four-parameter logistic equation over a 12-point dose response curve (GraphPad Prism). The signal to noise (S/N) was determined by taking the ratio of the highest RLU on the dose response curve to the RLU in the untreated wells.
GLP1R agonist linker payloads were conjugated to anti-hGLP1R antibodies via N-terminal heavy or light chain Q tags. Several resulting anti-GLP1R antibody tethered drug conjugates (ATDCs) were tested for activity in the HEK293/CRE-Luc/hGLP1R reporter assay as described above for the free GLP1R payload and linker-payload agonists.

HEK293/CRE-Luc cells [2] = assay: Luciferase reporter assay, HEK293/CRE-Luc cells without GLP1R (Example 17); type: cell-based, human; conditions: HEK293/CRE-Luc cells without hGLP1R; for EC50: read-out: EC50
Outline: (§3)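 HEK293 cells carrying a CRE-driven firefly luciferase reporter were exposed to 3-fold serial dilutions of payloads or linker-payloads (12 points, 0.2% DMSO final) for 4–6 h, then luminescence was read. EC50 came from a four-parameter logistic fit; S/N is top RLU over untreated wells, and relative potency and S/N are referenced to M2361.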

human GLP1R [3] = biological target: T1, human GLP1R; assay: Luciferase reporter assay, HEK293/CRE-Luc/hGLP1R (Example 17); type: cell-based; set-up: engineered to express full-length human GLP1R, cynomolgus GLP1R; expressed in transfected cells; host or cells: HEK293/CRE-Luc; conditions: HEK293/CRE-Luc/hGLP1R; for S/N: highest RLU / RLU of untreated wells; for Relative Potency (% M2361 EC50) / Relative Signal:Noise (% M2361): relative to M2361 of the same experiment
Outline: as §3

HEK293/CRE-Luc cells [4] = assay: Luciferase reporter assay, HEK293/CRE-Luc cells without hGLP1R (Example 11); type: cell-based, human; conditions: Experiment A; for EC50 / HEK293/CRE-LUC S/N: Table 11, no hGLP1R expression
From the text: as §1, §2

[5] = Plasma stability of payloads and linker-payloads, human plasma; type: in vitro ADME; conditions: plasma, 2 μM, 37° C.; for half-life at 2 µM: pH 7.4, tested time C (3 days), read-out: Human plasma stability assay T½ (converted)
Description: The plasma stability of payloads and linker payloads of the disclosure were measured. For the assay, pooled frozen plasma (human, mouse or monkey) was thawed in cold water or a 37° C. water bath prior to experiment. Plasma was centrifuged at 4000 rpm for 5 min if any clots were observed, they were subsequently removed. If required, the pH was adjusted to 7.4±0.1. For the preparation of compounds and positive controls, a 1 mM intermediate solution was prepared by diluting 10 μL of their stock solution with 90 μL DMSO; a 1 mM intermediate solution of the positive control (Propantheline) was prepared by diluting 10 μL of its stock solution with 90 μL ultrapure water. […] 98 μL of plasma was spiked with 2 μL of dosing solution (100 μM) to achieve the final concentration of 2 μM in duplicate. Samples were then incubated at 37° C. in a water bath. […] At each time point, 400 μL of stop solution (200 ng/mL tolbutamide plus 200 ng/mL labetalol in 50% ACN/MeOH) was added to precipitate protein and mixed thoroughly. Sample plates were then centrifuged at 4,000 rpm for 10 min. An aliquot of supernatant (50 μL) was transferred from each well and mixed with 100 μL ultrapure water. The samples were then shaken at 800 rpm for approximately 10 min before submitting for LC-MS/MS analysis.

human GLP1R [6] = biological target: T1, human GLP1R; assay: Human GLP1R cAMP accumulation assay; type: cell-based; set-up: HEK293 cells over-expressing full length human GLP-1R were utilized; expressed in transfected cells; host or cells: HEK293 (HEK293/hGLP1R); conditions: HEK293/hGLP1R cells; Table 4; read-out: cAMP EC50
Description: 8.1 Human GLP1R cAMP Accumulation Assay (Cyclic AMP Determination)
The functional activity of the test compounds for agonizing GLP1R were evaluated using a cell-based assay. For the assay, HEK293 cells over-expressing full length human GLP-1R were utilized and the downstream cAMP accumulation was assessed as a measure of human GLP-1R stimulation. […] Diluted compounds were transferred to OptiPlates (100 nL/well) using an Echo liquid handler. HEK293/hGLP1R cells were thawed in 37° C. water-bath, washed 2 times with HBSS and re-suspended in assay buffer (HBSS+5 mM HEPES+500 μM IBMX+0.1% BSA). […] After centrifugation, the assay plate was incubated at 23° C. for 30 min. The reaction was terminated by adding 10 μL of lysis buffer containing D2-cAMP and a cAMP-antibody from the cyclic AMP immunoassay kit (Cisbio, Cat #62AM4PEJ). […] The levels of cAMP per well were calculated using a standard curve generated by GraphPad Prism. Percent activity was calculated according to the formula (% Activity=100%*(cAMP level-LC)/(HC-LC)). EC50 values were fitted from a four-parameter logistic equation over a 10-point response curve (GraphPad Prism).

T1 sequence (P43220 24-463): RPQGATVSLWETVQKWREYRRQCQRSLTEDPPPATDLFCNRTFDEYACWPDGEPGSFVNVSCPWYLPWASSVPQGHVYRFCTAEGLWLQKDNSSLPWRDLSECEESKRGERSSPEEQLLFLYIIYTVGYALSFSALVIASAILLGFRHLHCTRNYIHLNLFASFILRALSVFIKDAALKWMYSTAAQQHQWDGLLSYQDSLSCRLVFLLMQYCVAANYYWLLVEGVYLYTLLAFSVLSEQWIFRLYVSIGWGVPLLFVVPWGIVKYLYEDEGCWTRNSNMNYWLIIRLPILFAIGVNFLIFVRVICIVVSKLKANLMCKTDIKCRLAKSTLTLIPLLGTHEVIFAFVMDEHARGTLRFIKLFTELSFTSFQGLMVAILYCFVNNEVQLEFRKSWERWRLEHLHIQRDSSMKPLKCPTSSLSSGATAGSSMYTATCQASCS

- HEK293/CRE-LUC/hGLP1R Relative Potency (% P8 EC50) (human GLP1R [1]): 46.5%
- HEK293/CRE-LUC/hGLP1R S/N (human GLP1R [1]): 76.4
- S/N (human GLP1R [3]): 76.4
- Relative Potency (% M2361 EC50) (human GLP1R [3]): 46.5%
- Relative Signal:Noise (% M2361) (human GLP1R [3]): 116.2%
SMILES: CCc1cc(OCCCCN)ccc1-c1ccc(C[C@H](NC(=O)[C@H](CC(=O)O)NC(=O)[C@H](CO)NC(=O)[C@@H](NC(=O)[C@](C)(Cc2ccccc2F)NC(=O)[C@@H](NC(=O)CNC(=O)[C@H](Cc2nn[nH]n2)NC(=O)CNC(=O)CCc2cnc[nH]2)[C@@H](C)O)[C@@H](C)O)C(=O)N[C@@H](CCCc2cc(C)cc(C)c2)C(N)=O)cc1 [P12] (Desaminohistidyl-G[Ala(1H-tetrazol-5-yl)]GT[αMePhe(2-F)]TSD[Bip(2'-Et,4'-O(CH2)4NH2)][Nva(5-(3,5-Me2Ph))]-NH2)
- S/N (HEK293/CRE-Luc cells [2]; payloads and linker-payloads): 1.2
- EC50 (HEK293/CRE-Luc cells [2]; payloads and linker-payloads): > 200 nM
- EC50 (HEK293/CRE-Luc cells [4]): > 200 nM
- HEK293/CRE-LUC S/N (HEK293/CRE-Luc cells [4]): 1.2

SMILES: CCc1cc(OCCCCn2cc(COCCOCCOCCOCCOCCOCCOCCOCCNC(=O)CCC(=O)N3Cc4ccccc4-c4nn[nH]c4-c4ccccc43)nn2)ccc1-c1ccc(C[C@H](NC(=O)[C@H](CC(=O)O)NC(=O)[C@H](CO)NC(=O)[C@@H](NC(=O)C(C)(Cc2ccccc2F)NC(=O)[C@@H](NC(=O)CNC(=O)[C@H](Cc2nn[nH]n2)NC(=O)C(C)(C)C(=O)NCCc2cnc[nH]2)[C@@H](C)O)[C@@H](C)O)C(=O)N[C@@H](CCCc2cc(C)cc(C)c2)C(N)=O)cc1 (some centres unmarked) [LP28, triazole-DIBAC-suc-PEG8-triazole-P8]
- half-life at 2 µM [5]: > 7.23 days

SMILES: CCc1cc(OCCCCn2cc(COCCOCCOCCOCCOCCOCCOCCOCCN)nn2)ccc1-c1ccc(C[C@H](NC(=O)[C@H](CC(=O)O)NC(=O)[C@H](CO)NC(=O)[C@@H](NC(=O)[C@](C)(Cc2ccccc2F)NC(=O)[C@@H](NC(=O)CNC(=O)[C@H](Cc2nn[nH]n2)NC(=O)C(C)(C)NC(=O)[C@@H](N)Cc2ccc(O)cc2)[C@@H](C)O)[C@@H](C)O)C(=O)N[C@@H](CCCc2cc(C)cc(C)c2)C(N)=O)cc1 [LP29, NH2-PEG8-triazole-P19]
- half-life at 2 µM [5]: > 7.23 days

- EC50 (human GLP1R [1]): 0.0132 nM
- HEK293/CRE-LUC/hGLP1R Relative Potency (% P8 EC50) (human GLP1R [1]): 40.3%
- HEK293/CRE-LUC/hGLP1R S/N (human GLP1R [1]): 67.8
- EC50 (human GLP1R [6]): 0.117 nM
SMILES: CCc1cc(OCCCCN)ccc1-c1ccc(C[C@H](NC(=O)[C@H](CC(=O)O)NC(=O)[C@H](CO)NC(=O)[C@@H](NC(=O)[C@](C)(Cc2ccccc2F)NC(=O)[C@@H](NC(=O)CNC(=O)[C@H](Cc2nn[nH]n2)NC(=O)[C@@]2(C)CCN(CCc3cnc[nH]3)C2=O)[C@@H](C)O)[C@@H](C)O)C(=O)N[C@@H](CCCc2cc(C)cc(C)c2)C(N)=O)cc1 [P15-R]
- EC50 (HEK293/CRE-Luc cells [4]): > 200 nM
- HEK293/CRE-LUC S/N (HEK293/CRE-Luc cells [4]): 1.1

SMILES: CCc1cc(OCCCCn2cc(COCCOCCOCCOCCOCCOCCOCCOCCC(=O)N[C@@H](CC(C)C)C(=O)N3CCC[C@@H]3C(=O)N[C@@H](CCC(=O)O)C(=O)N[C@H](C(=O)NCC(=O)NCC(=O)O)[C@@H](C)O)nn2)ccc1-c1ccc(C[C@H](NC(=O)[C@H](CC(=O)O)NC(=O)[C@H](CO)NC(=O)[C@@H](NC(=O)[C@](C)(Cc2ccccc2F)NC(=O)[C@@H](NC(=O)CNC(=O)[C@H](Cc2nn[nH]n2)NC(=O)C(C)(C)C(=O)NCCc2cnc[nH]2)[C@@H](C)O)[C@@H](C)O)C(=O)N[C@@H](CCCc2cc(C)cc(C)c2)C(N)=O)cc1 [LP34, GGT EPL-PEG8-triazole-P8]
- half-life ([5]; tested time C (3 days), read-out: Human plasma stability assay T½): > 7.23 days

SMILES: CC[C@H](C)[C@H](NC(=O)[C@H](Cc1ccccc1)NC(=O)[C@H](CCC(=O)O)NC(=O)[C@H](CCCCN)NC(=O)[C@H](C)NC(=O)[C@H](C)NC(=O)[C@H](CCC(N)=O)NC(=O)CNC(=O)[C@H](CCC(=O)O)NC(=O)[C@H](CC(C)C)NC(=O)[C@H](Cc1ccc(O)cc1)NC(=O)[C@H](CO)NC(=O)[C@H](CO)NC(=O)[C@@H](NC(=O)[C@H](CC(=O)O)NC(=O)[C@H](CO)NC(=O)[C@@H](NC(=O)[C@H](Cc1ccccc1)NC(=O)[C@@H](NC(=O)CNC(=O)[C@H](CCC(=O)O)NC(=O)[C@H](C)NC(=O)[C@@H](N)Cc1c[nH]cn1)[C@@H](C)O)[C@@H](C)O)C(C)C)C(=O)N[C@@H](C)C(=O)N[C@@H](Cc1c[nH]c2ccccc12)C(=O)N[C@@H](CC(C)C)C(=O)N[C@H](C(=O)N[C@@H](CCCCN)C(=O)NCC(=O)N[C@@H](CCCNC(=N)N)C(N)=O)C(C)C [GLP1, glucagon-like peptide 1, reference compound]
- S/N (HEK293/CRE-Luc cells [2]; ATDCs and references (Table 27)): 1.4
- S/N (HEK293/CRE-Luc cells [2]; payloads and linker-payloads): 1.3
- HEK293/CRE-LUC S/N (HEK293/CRE-Luc cells [4]): 1.3
- HEK293/CRE-Luc S/N (HEK293/CRE-Luc cells [4]; Table 12): 1.4

- EC50 (human GLP1R [6]): 0.115 nM
- S/N (human GLP1R [3]): 50.6
- EC50 (human GLP1R [3]; payloads and linker-payloads, experiments A-E, M2361 repeated in each, read-out: EC50): 0.127 nM
- Relative Potency (% M2361 EC50) (human GLP1R [3]): 4.2%
- Relative Signal:Noise (% M2361) (human GLP1R [3]): 76.9%
SMILES: CCc1cc(OCCCCN)ccc1-c1ccc(C[C@H](NC(=O)[C@H](CC(=O)O)NC(=O)[C@H](CO)NC(=O)[C@@H](NC(=O)[C@](C)(Cc2ccccc2F)NC(=O)[C@@H](NC(=O)CNC(=O)[C@H](Cc2nn[nH]n2)NC(=O)C(C)(C)C(=O)NO)[C@@H](C)O)[C@@H](C)O)C(=O)N[C@@H](CCCc2cc(C)cc(C)c2)C(N)=O)cc1 [P5] (X6-[Ala(1H-tetrazol-5-yl)]GT[αMePhe(2-F)]TSD[Bip(2'-Et,4'-O(CH2)4NH2)][Nva(5-(3,5-Me2Ph))]-NH2)
- S/N (HEK293/CRE-Luc cells [2]; payloads and linker-payloads): 1.3
- EC50 (HEK293/CRE-Luc cells [2]; payloads and linker-payloads): > 200 nM
